Our source for the IC50, Ki and melting point values is patent US8143303B2, “Carbazole derivatives as functional 5-HT6 ligands” (Suven Life Sciences Limited, priority 2005, dated 2012).

In one data set the target is T1, Human 5-HT6 receptor (Homo sapiens, UniProt P50406).
T1 construct: host or cells: HEK-293
The data set is described as follows: Nova Screen binding assay for human 5-HT6 receptor ([3H]LSD). The settings on record: Human recombinant receptor expressed in HEK-293 cells; [3H]LSD 1.5 nM; 60 minutes at 37° C. The procedure:
Nova Screen Binding Assay for Human 5-HT6 Receptor
Pharmacological data Compounds can be tested according to the following the procedures.
Receptor source: Human recombinant expressed in HEK-293 cells
Radioligand: [^3H]LSD (60-80 Ci/mmol)
Final ligand concentration—[1.5 nM]
Non-specific determinant: Methiothepin mesylate—[0.1 μM]
Reference compound: Methiothepin mesylate
Positive control: Methiothepin mesylate
Incubation conditions: Reactions were carried out in 50 mM TRIS HCl (pH 7.4) containing 10 mM MgCl2, 0.5 mM EDTA for 60 minutes at 37° C. The reaction was terminated by rapid vacuum filtration onto glass fiber filters. Radioactivity trapped onto the filters was determined and compared to control values in order to ascertain any interactions of test compound(s) with the cloned serotonin-5HT6 binding site.
Mol. Pharmacol. (43): 320-327 (1993).

T1 sequence (P50406 whole entry): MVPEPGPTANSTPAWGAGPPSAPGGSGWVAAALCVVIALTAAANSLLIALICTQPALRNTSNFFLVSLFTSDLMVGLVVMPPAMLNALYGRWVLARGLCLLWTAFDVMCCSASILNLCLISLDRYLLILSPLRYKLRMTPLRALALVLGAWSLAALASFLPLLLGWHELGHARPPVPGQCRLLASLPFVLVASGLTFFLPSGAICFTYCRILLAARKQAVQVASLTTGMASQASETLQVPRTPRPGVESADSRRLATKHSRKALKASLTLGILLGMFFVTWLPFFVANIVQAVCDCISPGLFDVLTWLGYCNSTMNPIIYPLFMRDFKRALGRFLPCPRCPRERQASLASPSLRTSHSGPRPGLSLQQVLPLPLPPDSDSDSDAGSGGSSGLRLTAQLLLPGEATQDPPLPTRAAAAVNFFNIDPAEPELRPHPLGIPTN

One may read the IC50 as the midpoint of a concentration-inhibition curve. The Ki is the dissociation constant of the complex between target and ligand, obtained from inhibition or displacement. One may read the melting point as the temperature, or range, at which the solid turns liquid. In turn, `CN(C)C1CCc2c(c3cc(Br)ccc3n2S(=O)(=O)c2ccc(F)cc2)C1` (stereo not drawn) [Example 11, [6-Bromo-9-(4-fluorobenzenesulphonyl)-2,3,4,9-tetrahydro-1H-carbazol-3-yl]dimethylamine] came in with a melting point of 158.1 to 160 °C. For the same molecule, at Human 5-HT6 receptor, the concentration for half-maximal inhibition (IC50) was 20.2 nM and the Ki is 9.42 nM.

Regarding `COc1ccc2c(c1)c1c(n2S(=O)(=O)c2ccccc2)CCC(N(C)C)C1` (stereo not drawn) [Example 26, [6-Methoxy-9-benzenesulfonyl-2,3,4,9-tetrahydro-1H-carbazol-3-yl]dimethylamine], on Human 5-HT6 receptor, the IC50 amounted to 10.8 nM and the Ki worked out at 5.44 nM.

`Cc1ccc(S(=O)(=O)n2c3c(c4cc(F)ccc42)CC(N(C)C)CC3)cc1` (stereo not drawn) [Example 22, [6-Fluoro-9-(4-methylbenzenesulfonyl)-2,3,4,9-tetrahydro-1H-carbazol-3-yl]dimethylamine] returned a melting point of 148.8 to 153 °C. In addition, on Human 5-HT6 receptor, the half-maximal inhibitory concentration (IC50) was 64.3 nM and the Ki was determined as 32.4 nM.

In turn, `CN(C)C1CCc2c(c3ccccc3n2S(=O)(=O)c2ccc(F)cc2)C1` (stereo not drawn) [Example 3, 9-[(4-Fluorobenzenesulphonyl)-2,3,4,9-tetrahydro-1H-carbazol-3-yl]dimethylamine] returned a melting point of 130.2 to 132.8 °C. Also, at Human 5-HT6 receptor, the 50% inhibitory concentration (IC50) was 27 nM and the Ki stood at 12.5 nM.

`CN(C)C1CCc2c(c3cc(F)ccc3n2S(=O)(=O)c2ccc(Br)cc2)C1` (stereo not drawn) [Example 24, [6-Fluoro-9-(4-bromobenzenesulfonyl)-2,3,4,9-tetrahydro-1H-carbazol-3-yl]dimethylamine] displayed a melting point of 170.6 to 174.1 °C. For the same molecule, at Human 5-HT6 receptor, the half-maximal inhibitory concentration (IC50) was 99.7 nM and the inhibition constant (Ki) was 43.5 nM.

As to `CN(C)C1CCc2c(c3cc(F)ccc3n2S(=O)(=O)c2ccc(F)cc2)C1` (stereo not drawn) [Example 25, [6-Fluoro-9-(4-fluorobenzenesulfonyl)-2,3,4,9-tetrahydro-1H-carbazol-3-yl]dimethylamine], the melting point was 147.5 to 151.2 °C. Also, on Human 5-HT6 receptor, the IC50 came out at 63.5 nM and the Ki was found to be 32.8 nM.

`Cc1ccc(S(=O)(=O)n2c3c(c4cc(Cl)ccc42)CC(N(C)C)CC3)cc1` (stereo not drawn): the melting point was 130 to 138 °C.

Take `CN(C)C1CCc2c(c3cc(Br)ccc3n2S(=O)(=O)c2ccccc2Br)C1` (stereo not drawn) [Example 14, [6-Bromo-9-(2-bromobenzenesulphonyl)-2,3,4,9-tetrahydro-1H-carbazol-3-yl]dimethylamine]: the melting point was 158.78 to 161.04 °C.

For the molecule `CN(C)C1CCc2c(c3cc(Cl)ccc3n2S(=O)(=O)c2ccc(F)cc2)C1` (stereo not drawn) [Example 20, [6-Chloro-9-(4-fluorobenzenesulfonyl)-2,3,4,9-tetrahydro-1H-carbazol-3-yl]dimethylamine], the melting point was 150 to 155 °C.

For the molecule `CN(C)C1CCc2c(c3cc(Cl)ccc3n2S(=O)(=O)c2ccccc2)C1` (stereo not drawn), the melting point fell in the range of 150 to 155 °C.

`CN(C)C1CCc2c(c3cc(F)ccc3n2S(=O)(=O)c2ccccc2)C1` (stereo not drawn) [Example 21, [6-Fluoro-9-benzenesulfonyl-2,3,4,9-tetrahydro-1H-carbazol-3-yl]dimethylamine] displayed a melting point of 127.7 to 130.3 °C. At Human 5-HT6 receptor, the IC50 is 30.5 nM and the inhibition constant (Ki) was found to be 15.7 nM.

The molecule `CN(C)C1CCc2c(c3cc(Br)ccc3n2S(=O)(=O)c2cccc(Cl)c2Cl)C1` (stereo not drawn) [Example 39, [6-Bromo-9-(2,3-dichlorobenzenesulphonyl)-2,3,4,9-tetrahydro-1H-carbazol-3-yl]dimethylamine] returned a melting point of 189 to 192 °C.

`COc1ccc2c(c1)c1c(n2S(=O)(=O)c2cccc(C(F)(F)F)c2)CCC(N(C)C)C1` (stereo not drawn) [Example 31, [6-Methoxy-9-(3-trifluoromethylbenzenesulfonyl)-2,3,4,9-tetrahydro-1H-carbazol-3-yl]dimethylamine] came in with a melting point of 144 to 146 °C.

Take `CSc1ccc2c(c1)c1c(n2S(=O)(=O)c2ccc(F)cc2)CCC(N(C)C)C1` (stereo not drawn) [Example 35]: the melting point was in the range of 148.9 to 156.1 °C. Moreover, at Human 5-HT6 receptor, the IC50 came to 47.1 nM and the Ki came to 24.9 nM.

`COc1ccc2c(c1)c1c(n2S(=O)(=O)c2ccc(Br)cc2)CCC(N(C)C)C1` (stereo not drawn) [Example 29, [6-Methoxy-9-(4-bromobenzenesulfonyl)-2,3,4,9-tetrahydro-1H-carbazol-3-yl]dimethylamine] yielded a melting point of 173.2 to 173.8 °C. Also, at Human 5-HT6 receptor, the 50% inhibitory concentration (IC50) stood at 28.9 nM and the Ki was 15.1 nM.

Consider `COc1ccc2c(c1)c1c(n2S(=O)(=O)c2ccc(F)cc2)CCC(N(C)C)C1` (stereo not drawn) [Example 30, [6-Methoxy-9-(4-fluorobenzenesulfonyl)-2,3,4,9-tetrahydro-1H-carbazol-3-yl]dimethylamine], for which the melting point was 160.7 to 163.4 °C. In addition, at Human 5-HT6 receptor, the half-maximal inhibitory concentration (IC50) was 52.3 nM and the Ki turned out to be 24.3 nM.

On to `COc1ccc2c(c1)c1c(n2S(=O)(=O)c2ccc(C)cc2)CCC(N(C)C)C1` (stereo not drawn) [Example 27, [6-Methoxy-9-(4-methylbenzenesulfonyl)-2,3,4,9-tetrahydro-1H-carbazol-3-yl]dimethylamine], for which the melting point was 131.8 to 140 °C. Further, on Human 5-HT6 receptor, the IC50 worked out at 11.7 nM and the Ki came to 5.89 nM.

`CSc1ccc2c(c1)c1c(n2S(=O)(=O)c2ccc(C)cc2)CCC(N(C)C)C1` (stereo not drawn) [Example 33, [6-Methylthio-9-(4-methylbenzenesulfonyl)-2,3,4,9-tetrahydro-1H-carbazol-3-yl]dimethylamine] registered a melting point of 105.2 to 115 °C. In addition, at Human 5-HT6 receptor, the IC50 turned out to be 26.1 nM and the Ki is 13.8 nM.

For `CC(C)c1ccc(S(=O)(=O)n2c3c(c4cc(F)ccc42)CC(N(C)C)CC3)cc1` (stereo not drawn) [Example 23, [6-Fluoro-9-(4-isopropylbenzenesulfonyl)-2,3,4,9-tetrahydro-1H-carbazol-3-yl]dimethylamine], the melting point lay within 95.4 to 103.8 °C. Besides, at Human 5-HT6 receptor, the IC50 amounted to 33.4 nM and the Ki came to 15.5 nM.

In turn, `CC(C)c1ccc(S(=O)(=O)n2c3c(c4cc(Br)ccc42)CC(N(C)C)CC3)cc1` (stereo not drawn) had a melting point of 152.75 to 154.98 °C.
